Experimental data published in US9221756B2, “Pyrrole derivatives” (priority 2011, dated 2015).

Molecular target: pneumolysin (Streptococcus pneumoniae serotype 2, UniProt Q04IN8)
Test: Inhibition of the haemolytic activity of pneumolysin (sheep erythrocytes)
Format: cell-based
Conditions: IC50, inhibition of pneumolysin-induced haemolysis of sheep erythrocytes; class symbols of Table 1

pneumolysin, sequence (Q04IN8 whole entry): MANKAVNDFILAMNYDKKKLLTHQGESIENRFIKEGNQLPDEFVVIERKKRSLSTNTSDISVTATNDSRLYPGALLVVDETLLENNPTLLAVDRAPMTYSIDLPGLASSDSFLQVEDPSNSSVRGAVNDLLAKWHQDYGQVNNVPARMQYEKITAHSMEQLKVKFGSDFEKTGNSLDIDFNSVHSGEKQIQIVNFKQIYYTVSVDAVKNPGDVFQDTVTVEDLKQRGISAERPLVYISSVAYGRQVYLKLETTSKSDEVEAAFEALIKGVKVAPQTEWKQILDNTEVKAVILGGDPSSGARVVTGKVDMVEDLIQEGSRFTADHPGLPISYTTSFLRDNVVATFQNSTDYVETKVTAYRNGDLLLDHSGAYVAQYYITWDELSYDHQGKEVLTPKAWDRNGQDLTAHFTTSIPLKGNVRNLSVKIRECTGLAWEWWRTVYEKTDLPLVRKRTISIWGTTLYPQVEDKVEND

| SMILES | IC50 [µM] |
| --- | --- |
| CCOC(=O)c1c(OCc2ccccc2)c(OCc2ccccc2)c(C#N)n1-c1ccc(F)cc1 [UL1-060, ethyl 3,4-bis(benzyloxy)-5-cyano-1-(4-fluorophenyl)-1H-pyrrole-2-carboxylate] | 20 to 60 |
| COc1ccccc1-n1c(C(=O)N(C)C)c(OCc2ccccc2)c(OCc2ccccc2)c1C(=O)N(C)C [UL1-050, 3,4-bis(benzyloxy)-1-(2-methoxyphenyl)-N^2,N^2,N^5,N^5-tetramethyl-1H-pyrrole-2,5-dicarboxamide] | 10 to 20 |
| COc1ccc(-n2c(C(N)=O)c(OCc3ccccc3)c(OCc3ccccc3)c2C(N)=O)cc1 [UL1-072, 3,4-bis(benzyloxy)-1-(4-methoxyphenyl)-1H-pyrrole-2,5-dicarboxamide] | 20 to 60 |
| CCOC(=O)c1c(OCc2ccccc2)c(OCc2ccccc2)c(-c2ccccc2OC)n1-c1ccc(OC)cc1 [UL1-081, ethyl 3,4-bis(benzyloxy)-5-(2-methoxyphenyl)-1-(4-methoxyphenyl)-1H-pyrrole-2-carboxylate] | 20 to 60 |
| COc1ccc(-n2c(C(=O)N(C)C)c(O)c(O)c2C(=O)N(C)C)cc1 [UL1-005, 3,4-dihydroxy-1-(4-methoxyphenyl)-N^2,N^2,N^5,N^5-tetramethyl-1H-pyrrole-2,5-dicarboxamide] | < 10 |
| CCOC(=O)c1c(OC(=O)C(C)(C)COCCOC)c(OC(=O)C(C)(C)COCCOC)c(C(=O)N(C)C)n1-c1ccc(OC)cc1 [UL1-108, 2-(dimethylcarbamoyl)-5-(ethoxycarbonyl)-1-(4-methoxyphenyl)-1H-pyrrole-3,4-diyl bis(3-(2-methoxyethoxy)-2,2-dimethylpropanoate)] | 10 to 20 |
| COc1ccc(-n2c(C(=O)N3CCN(C(=O)OC(C)(C)C)CC3)c(O)c(O)c2C(=O)N2CCN(C(=O)OC(C)(C)C)CC2)cc1 [UL1-015, di-tert-butyl 4,4′-(3,4-dihydroxy-1-(4-methoxyphenyl)-1H-pyrrole-2,5-dicarbonyl)bis(piperazine-1-carboxylate)] | < 10 |
| CCOC(=O)c1c(O)c(O)c(C(=O)OCC)n1-c1ccc(OC(F)(F)F)cc1 [UL2-005, diethyl 3,4-dihydroxy-1-(4-(trifluoromethoxy)phenyl)-1H-pyrrole-2,5-dicarboxylate] | < 10 |
| COc1ccc(-n2c(C(=O)OC(C)C)c(O)c(O)c2C(=O)N(C)C)cc1 [UL1-035, isopropyl 5-(dimethylcarbamoyl)-3,4-dihydroxy-1-(4-methoxyphenyl)-1H-pyrrole-2-carboxylate] | < 10 |
| CCOc1ccc(-n2c(C(=O)N(CC)CC)c(O)c(O)c2C(=O)N(CC)CC)cc1 [UL1-002, 1-(4-ethoxyphenyl)-N^2,N^2,N^5,N^5-tetraethyl-3,4-dihydroxy-1H-pyrrole-2,5-dicarboxamide] | < 10 |
| CCOC(=O)c1c(O)c(O)c(C(=O)OCC)n1-c1ccc(OCCCN2CCOCC2)cc1 [UL2-037, diethyl 3,4-dihydroxy-1-(4-(3-morpholinopropoxy)phenyl)-1H-pyrrole-2,5-dicarboxylate] | < 10 |
| CCNC(=O)c1c(OCc2ccccc2)c(OCc2ccccc2)c(C(=O)NCC)n1-c1ccc(OC)cc1 [UL1-074, 3,4-bis(benzyloxy)-N2,N5-diethyl-1-(4-methoxyphenyl)-1H-pyrrole-2,5-dicarboxamide] | 20 to 60 |
| COc1ccc(-n2c(C(=O)N(C)C)c(O)c(O)c2C(=O)N2CCOCC2)cc1 [UL1-026, 3,4-dihydroxy-1-(4-methoxyphenyl)-N,N-dimethyl-5-(morpholine-4-carbonyl)-1H-pyrrole-2-carboxamide] | < 10 |
| NC(=O)c1c(OCc2ccccc2)c(OCc2ccccc2)c(C(N)=O)n1-c1ccc(F)cc1 [UL1-075, 3,4-bis(benzyloxy)-1-(4-fluorophenyl)-1H-pyrrole-2,5-dicarboxamide] | 20 to 60 |
| COc1ccc(-n2c(C(=O)N3CCN(C(=O)OC(C)(C)C)CC3)c(OCc3ccccc3)c(OCc3ccccc3)c2C(=O)N2CCN(C(=O)OC(C)(C)C)CC2)cc1 [UL1-048, di-tert-butyl 4,4′-(3,4-bis(benzyloxy)-1-(4-methoxyphenyl)-1H-pyrrole-2,5-dicarbonyl)bis(piperazine-1-carboxylate)] | < 10 |
| CCOC(=O)c1c(OCC(=O)OC(C)(C)C)c(OCc2ccccc2)c(C(=O)OCC)n1-c1ccc(OC)cc1 [UL2-028, diethyl 3-(benzyloxy)-4-(2-(tert-butoxy)-2-oxoethoxy)-1-(4-methoxyphenyl)-1H-pyrrole-2,5-dicarboxylate] | 20 to 60 |
| CCOC(=O)c1c(O)c(OCC(N)=O)c(C(=O)OCC)n1-c1ccc(OC)cc1 [UL2-031, diethyl 3-(2-amino-2-oxoethoxy)-4-hydroxy-1-(4-methoxyphenyl)-1H-pyrrole-2,5-dicarboxylate] | 20 to 60 |
| CCOC(=O)c1c(O)c(O)c(C(=O)OCC)n1-c1ccc(OC)c(I)c1 [UL2-033, diethyl 3,4-dihydroxy-1-(3-iodo-4-methoxyphenyl)-1H-pyrrole-2,5-dicarboxylate] | < 10 |
| CCOC(=O)c1c(O)c(O)c(C(=O)OCC)n1-c1cc(OC)c(OC)c(OC)c1 [UL2-014, diethyl 3,4-dihydroxy-1-(3,4,5-trimethoxyphenyl)-1H-pyrrole-2,5-dicarboxylate] | < 10 |
| COc1ccccc1-n1c(C(=O)N2CCOCC2)c(O)c(O)c1C(=O)N1CCOCC1 [UL1-020, (3,4-dihydroxy-1-(2-methoxyphenyl)-1H-pyrrole-2,5-diyl)bis(morpholinomethanone)] | < 10 |
| CCOC(=O)c1c(O)c(O)c(-c2nn[nH]n2)n1-c1ccc(OC)cc1 [UL1-089, ethyl 3,4-dihydroxy-1-(4-methoxyphenyl)-5-(2H-tetrazol-5-yl)-1H-pyrrole-2-carboxylate] | < 10 |
| CCOC(=O)c1c(O)c(O)c(C(=O)N(C)C)n1-c1ccc(O)cc1 [UL1-100, ethyl 5-(dimethylcarbamoyl)-3,4-dihydroxy-1-(4-hydroxyphenyl)-1H-pyrrole-2-carboxylate] | < 10 |
| CCOC(=O)c1c(O)c(O)c(C(=O)OCC)n1-c1ccc(C(C)C)cc1 [UL2-006, diethyl 3,4-dihydroxy-1-(4-isopropylphenyl)-1H-pyrrole-2,5-dicarboxylate] | < 10 |
| COc1ccccc1-n1c(C(=O)N(C)C)c(O)c(O)c1C(=O)N(C)C [UL1-019, 3,4-dihydroxy-1-(2-methoxyphenyl)-N^2,N^2,N^5,N^5-tetramethyl-1H-pyrrole-2,5-dicarboxamide] | < 10 |
| COc1ccc(-n2c(C(=O)N(C)C)c(OC(=O)C3CCNCC3)c(OC(=O)C3CCNCC3)c2C(=O)N(C)C)cc1 [UL1-123, 2,5-bis(dimethylcarbamoyl)-1-(4-methoxyphenyl)-1H-pyrrole-3,4-diyl bis(piperidine-4-carboxylate)] | < 10 |
| CCOC(=O)c1c(O)c(O)c(C(=O)OCC)n1-c1ccc(OC)cc1OC [UL2-015, diethyl 1-(2,4-dimethoxyphenyl)-3,4-dihydroxy-1H-pyrrole-2,5-dicarboxylate] | < 10 |
| CCN(CC)C(=O)c1c(OCc2ccccc2)c(OCc2ccccc2)c(C(=O)N(CC)CC)n1-c1ccc(OC)cc1 [UL1-046, 3,4-bis(benzyloxy)-N^2,N^2,N^5,N^5-tetraethyl-1-(4-methoxyphenyl)-1H-pyrrole-2,5-dicarboxamide] | < 10 |

Same assay, conditions: IC50, inhibition of pneumolysin-induced haemolysis of sheep erythrocytes; specific values

| SMILES | IC50 [µM] |
| --- | --- |
| COc1ccc(-n2c(C(=O)N(C)C)c(O)c(O)c2C(=O)N(C)C)cc1 [UL1-005, 3,4-dihydroxy-1-(4-methoxyphenyl)-N^2,N^2,N^5,N^5-tetramethyl-1H-pyrrole-2,5-dicarboxamide] | 0.15 |
| COc1ccc(-n2c(C(=O)OC(C)C)c(O)c(O)c2C(=O)N(C)C)cc1 [UL1-035, isopropyl 5-(dimethylcarbamoyl)-3,4-dihydroxy-1-(4-methoxyphenyl)-1H-pyrrole-2-carboxylate] | 0.15 |
| CCOC(=O)c1c(O)c(O)c(-c2nn[nH]n2)n1-c1ccc(OC)cc1 [UL1-089, ethyl 3,4-dihydroxy-1-(4-methoxyphenyl)-5-(2H-tetrazol-5-yl)-1H-pyrrole-2-carboxylate] | 0.4 |
